One experiment deals with Penicillium. Kind of experiment: Antifungal activity against Penicillium at 50 ug/ml after 72 hrs by disc diffusion method. The class given is functional, organism-based. Background: In agar diffusion tests the substance spreads into inoculated agar from a disc or well.
The next experiment has as its system Aspergillus niger. Kind of experiment: Antifungal activity against Aspergillus niger at 50 ug/ml after 72 hrs by disc diffusion method. The class given is functional, organism-based.
Experiment [1] relates to Achaea janata. Briefly: Antifeedant activity against fourth instar larvae of Achaea janata fed on compound treated castor leaves at 150 ppm after 24 hrs by leaf disc method. The class given is functional, organism-based.
A further experiment relates to Klebsiella pneumoniae. Briefly: Antibacterial activity against Klebsiella pneumoniae at 250 ug/ml after 24 to 45 hrs by disc diffusion method. The class given is functional. The conditions noted are these: read-out: IZ.
A further experiment relates to Proteus vulgaris. Kind of experiment: Antibacterial activity against Proteus vulgaris at 250 ug/ml after 24 to 45 hrs by disc diffusion method. The format is functional. To be noted: read-out: IZ.
The test system of the next experiment is Enterococcus faecalis. Kind of experiment: Antibacterial activity against Enterococcus faecalis at 250 ug/ml after 24 to 45 hrs by disc diffusion method. The class given is functional.
Experiment [2] relates to Achaea janata. Briefly: Antifeedant activity against fourth instar larvae of Achaea janata fed on compound treated castor leaves at 200 ppm after 24 hrs by leaf disc method. The format is functional, organism-based.
Another experiment has as its system Candida albicans. Briefly: Antifungal activity against Candida albicans at 250 ug/ml after 72 hrs by disc diffusion method. The format is functional. To be noted: for zone of inhibition at 250 µg/mL: read-out: IZ.
Another experiment concerns Staphylococcus aureus. Kind of experiment: Antibacterial activity against Staphylococcus aureus at 250 ug/ml after 24 to 45 hrs by disc diffusion method. The conditions noted are these: read-out: IZ. The format is functional.
A further experiment has as its system Pseudomonas. Kind of experiment: Antibacterial activity against Pseudomonas at 250 ug/ml after 24 to 45 hrs by disc diffusion method. The class given is functional. To be noted: read-out: IZ.
The next experiment relates to Escherichia coli. Kind of experiment: Antibacterial activity against Escherichia coli at 250 ug/ml after 24 to 45 hrs by disc diffusion method. The format is functional. The conditions noted are these: read-out: IZ.

Activity calls are given as the source filed them. Unless noted, the calls are words filed in the database; no cut-off is given here.

`Fc1cc(F)c2c(c1)CN1CN2Cc2cc(F)cc(F)c21`: the outcome in the experiment on Penicillium, with Aspergillus niger, in the experiment with Enterococcus faecalis and in the experiment on Candida albicans was inactive. The result with Achaea janata [1] and in the experiment with Achaea janata [2] was Active. The zone of inhibition at 250 µg/mL in the experiment on Klebsiella pneumoniae came to 8 mm; with Proteus vulgaris it was 8 mm; with Staphylococcus aureus it was 8 mm; with Pseudomonas, 8 mm; with Escherichia coli it was 13 mm.

As for `FC(F)(F)c1ccc2c(c1)CN1CN2Cc2cc(C(F)(F)F)ccc21`, the outcome in the experiment with Penicillium, with Aspergillus niger, in the experiment with Enterococcus faecalis and in the experiment on Candida albicans was inactive. For the same compound, the result in the experiment on Achaea janata [1] and in the experiment with Achaea janata [2] was Active. Further, the zone of inhibition at 250 µg/mL in the experiment with Klebsiella pneumoniae, in the experiment on Proteus vulgaris, in the experiment on Staphylococcus aureus, with Pseudomonas and with Escherichia coli was 13 mm in each case.

For `Fc1cc2c(cc1Cl)N1Cc3cc(F)c(Cl)cc3N(C2)C1`, the outcome with Penicillium, in the experiment on Achaea janata [1] and with Achaea janata [2] was Active. Moreover, the result in the experiment on Aspergillus niger and with Enterococcus faecalis was inactive. Further, the zone of inhibition at 250 µg/mL in the experiment with Klebsiella pneumoniae, in the experiment on Proteus vulgaris, with Candida albicans, in the experiment on Staphylococcus aureus, in the experiment on Pseudomonas and with Escherichia coli was 13 mm each time.

Turning to `Cc1cc(I)c2c(c1)CN1CN2Cc2cc(C)cc(I)c21`, the outcome in the experiment with Penicillium and in the experiment with Aspergillus niger was inactive. Further, the zone of inhibition at 250 µg/mL in the experiment with Klebsiella pneumoniae amounted to 13 mm; with Proteus vulgaris it was 13 mm; with Enterococcus faecalis (read-out: IZ), 8 mm; in the experiment on Candida albicans it was 13 mm; in the experiment with Staphylococcus aureus, 13 mm; in the experiment with Pseudomonas, 8 mm. Further, in the experiment with Escherichia coli, the zone of inhibition at 250 µg/mL was found to be 13 mm. Besides, the result in the experiment on Achaea janata [2] was Active.

(Values after ChEMBL document CHEMBL3046842, “Antimicrobial and insect antifeedant activities of some Trogers bases” (2012).)
